Data on two compounds can be found in patent publication US20220168430A1, “THERAPEUTIC METHODS FOR TREATING HEPATITIS B” (priority 2019, published 2022).

One data set has as its system HBV DNA. The data set is described as follows: HBV DNA by branched DNA assay in HepG2.2.15 cells, two-compound combinations (Examples 13-14). Format: cell-based, HBV; HepG2.2.15 (human hepatoblastoma). Particulars: for Average percent inhibition versus negative control: n = 4; for Additive percent inhibition versus negative control: Compound (2) μM: 0.01, 0.0032, 0.001, 0.0003, 0.0001, 0; for EC50: Hepatitis B virus. How it is done:
In vitro combination studies were conducted using the method of Prichard and Shipman (Prichard M N, and Shipman C Jr., Antiviral Research, 1990, 14(4-5), 181-205; and Prichard M N, et. al., MacSynergy II). The HepG2.2.15 cell culture system is a cell line derived from human hepatoblastoma HepG2 cells, which have been stably transfected with the adw2-subtype HBV genome as previously explained in Sells et al. (Proc. Natl. Acad. Sci. U. S. A, 1987. Vol 84:1005-1009). HepG2.2.15 cells secrete Dane-like viral particles, produce HBV DNA, and produce the viral proteins, HBeAg and HBsAg.
Although inhibition of HBV DNA, RNA and proteins can be determined in the presence of these inhibitors, we used the branched DNA assay due to its ability to quantitatively measure the level HBV DNA.
Detection of HBV DNA. The branched DNA assay (bDNA) was used to determine the effect of compound combinations on HBV DNA. HepG2.2.15 (10,000 cells/well) were cultured in DMEM medium plus supplements as described above. The next day, the cells were replenished with fresh medium followed by the addition of Inhibitor A and B, both were dissolved in 100% DMSO. The microtiter cell plates were incubated for a total duration of 6 days at 37° C. without replenishing media or compound. The serial dilutions spanned concentration ranges respective to the EC50 value of each compound. In addition to combination testing of the compounds, both inhibitors A and B were also tested singly.
The level of bDNA present in the inhibitor-treated supernatant wells was measured using a Quantigene 2.0 bDNA assay kit (Affymetrix, Santa Clara, Calif.) with HBV specific custom probe set (genotype D ayw; DF-10739) and manufacturer's instructions after performing a proteinase K digestion in lysis. The plates were read using a Victor luminescence plate reader (PerkinElmer Model 1420 Multilabel counter) and the RLU data generated from each well was calculated as inhibition of the untreated control wells. The data was analyzed using the interpretive guidelines established by Prichard and Shipman combination model using the MacSynergy II program (Prichard M N, Shipman C Jr. Antiviral Research, 1990. Vol 14(4-5):181-205; Prichard M N, Aseltine KR, and Shipman, C. MacSynergy II. University of Michigan 1992) to determine whether the combinations were synergistic, additive or antagonistic using the interpretive guidelines established by Prichard and Shipman as follows: synergy volumes <25 μM2% (log volume <2) at 95% CI=probably insignificant; 25-50 (log volume >2 and <5)=minor but significant 50-100 (log volume >5 and <9)=moderate, may be important in vivo; Over 100 (log volume >9)=strong synergy, probably important in vivo; volumes approaching 1000 (log volume >90)=unusually high, check data. The RLU data from the single compound treated cells were analyzed using XL-Fit module in Microsoft Excel to determine EC50 values using a 4-parameter curve fitting algorithm.

The test system of the next data set is HepG2.2.15 cells. It counts as cell-based, human. The following applies: Cmpd 2 μM: 0.01, 0.0032, 0.001, 0.0003, 0.0001, 0. The text has this:
The combination results were completed in duplicate with each assay consisting of 4 technical repeats.
The combination results were completed in duplicate with each assay consisting of 4 technical repeats. In this assay system, the combination results in additive inhibition of HBV DNA.

A word on the EC50: it is the concentration that produces a half-maximal response.

“And” between values parts separate entries of the source, which are not always exact repeats. Equal entries are not always repeated. Where two headings read alike, the source gives them in different places.

Regarding `C=C1[C@H](CO)[C@@H](O)C[C@@H]1n1cnc2c(=O)[nH]c(N)nc21` [ETV, entecavir], the “MacSynergy Volume Calculations, 99.99% confidence interval (Bonferroni Adj. 96%)” value with HBV DNA is reported as 0.00. Also, the “Average percent inhibition versus negative control” value in the data set with HBV DNA (ETV 0.0001 μM, Cmpd 2 μM: 0.01, 0.0032, 0.001, 0.0003, 0.0001, 0) is on record as −21.2%; with HBV DNA (ETV 0.001 μM, Cmpd 2 μM: 0.01, 0.0032, 0.001, 0.0003, 0.0001, 0), 48.98%; in the data set on HBV DNA (ETV 0.1 μM, Cmpd 2 μM: 0.01, 0.0032, 0.001, 0.0003, 0.0001, 0) it was 85.09%; with HBV DNA (ETV 1.0E−05 μM, Cmpd 2 μM: 0.01, 0.0032, 0.001, 0.0003, 0.0001, 0), −88.53%; in the data set with HBV DNA (ETV 1.00E−06 μM, Cmpd 2 μM: 0.01, 0.0032, 0.001, 0.0003, 0.0001, 0), −90.87%; in the data set with HBV DNA (ETV 3.16E−06 μM, Cmpd 2 μM: 0.01, 0.0032, 0.001, 0.0003, 0.0001, 0), −90.2%. Further, the “Average percent inhibition versus negative control” value in the data set on HBV DNA (ETV 3.17E−05 μM, Cmpd 2 μM: 0.01, 0.0032, 0.001, 0.0003, 0.0001, 0) was −55.97%. The “Additive percent inhibition versus negative control” value is −21.2% in the data set on HBV DNA (ETV 0.0001 μM); 48.98% in the data set with HBV DNA (ETV 0.001 μM); 85.09% in the data set on HBV DNA (ETV 0.1 μM); −88.53% in the data set on HBV DNA (ETV 1.0E−05 μM); −90.87% in the data set with HBV DNA (ETV 1.00E−06 μM); −90.2% in the data set with HBV DNA (ETV 3.16E−06 μM). Also, the “Additive percent inhibition versus negative control” value in the data set with HBV DNA (ETV 3.17E−05 μM) is given as −55.97%. The 50% effective concentration (EC50) with HBV DNA (HepG2.2.15, bDNA quantitation, read-out: Inhibitor A EC50) is 3200 pM. For the same compound, in the data set on HepG2.2.15 cells (ETV 3.17E−05 μM), the “Average percent of cell viability vs control” value is 101.92%.

Turning to `COCCCOc1cc2c(nc1OC)-c1cc(=O)c(C(=O)O)cn1[C@H](C(C)C)C2` [Compound 2], the “MacSynergy Volume Calculations, 99.99% confidence interval (Bonferroni Adj. 96%)” value is 0.00 in the data set on HBV DNA (ETV 0 μM, Cmpd 2 μM: 0.01, 0.0032, 0.001, 0.0003, 0.0001, 0) and 0 in the data set with HBV DNA (TAF 0 μM, Cmpd 2 μM: 0.01, 0.0032, 0.001, 0.0003, 0.0001, 0). In addition, the EC50 in the data set with HBV DNA (HepG2.2.15, HepG2.2.15, bDNA quantitation, study with ETV as Inhibitor A, read-out: Inhibitor B EC50) came out at 900 pM; with HBV DNA (HepG2.2.15, HepG2.2.15, bDNA quantitation, study with TAF as Inhibitor A, read-out: Inhibitor B EC50) it was 600 pM. Further, the “Average percent of cell viability vs control” value was 92.68% and 81.35% and 91.36% and 92.57% and 80.37% in the data set on HepG2.2.15 cells (ETV 0 μM); 104.89% and 104.08% and 103.79% and 101.80% and 99.27% with HepG2.2.15 cells (TAF 0 μM).
